This note sets out measurements from patent US7078389B2, “Chemically modified oligonucleotide for site-directed mutagenesis” (priority 1993, dated 2006).

“And” between values parts separate entries of the source, which are not always exact repeats. Equal values may be shown once.

In data set [1] the test system is supF gene within the pSP189 SV40 vector. The data set is described as follows: SV40 mutagenesis: vector DNA passaged in COS-7 cells. In kind it is cell-based, monkey. On the procedure: FIG. 3 is a schematic representation of the strategy for targeted mutagenesis of SV40 DNA. The 10 base triplex-forming oligonucleotide, psoralen-AG10 (4′hydroxymethyl-4,5′,8-trimethylpsoralen-5′[…]3′) (SEQ ID NO:1), is shown directly above its targeted sequence in the supF gene (base pairs 167–176), contained within the SV40 vector, pSP189. Psoralen-AG10 is incubated with the SV40 vector DNA to allow site-specific triplex formation. Photoactivation of the psoralen by irradiation with long wave ultraviolet light (320–400 nm) is designed to generate an adduct at the targeted base pair (167), as indicated by the arrow. The oligo-plasmid complex is then transfected into monkey COS-7 cells and allowed to replicate for 48 hours. Following purification of the vector DNA by the Hirt lysate procedure (Hirt et al., J. Mol. Biol. 26:365–369 (1967)), the DNA is used to transform E. coli SY204 lacZ125 (Am).
SV40 mutagenesis. The SV40 vector DNA (pSP189) at 80 nM was incubated with psoralen-AG10 or psoralen-GA10 (ranging from 2 to 1000-fold molar excess) and irradiated as described above. The oligonucleotide-plasmid complex was then transfected into monkey COS-7 cells (ATCC #1651-CRL) using cationic liposomes (DOTAP, Boehringer Manheim, Indianapolis, Ind.) at a final concentration of 5 μg/ml in the culture dish. The DNA/oligo/liposome mixture was added dropwise to the cell culture dish with swirling. The following day, the media containing the liposome mixture was replaced by fresh media. Following 48 hours to allow repair and replication, SV40 vector DNA was harvested from the COS cells by the Hirt lysate procedure. Genetic analysis of the supF genes in the SV40 vector was carried out by transformation of E. coli SY204 [lacZ125(Am)] to ampicillin resistance by electroporation using 12–150 ng of Dpn I digested Hirt lysate DNA and a Bio-Rad Gene Pulser apparatus equipped with a Pulse Controller (Bio-Rad, Richmond, Calif.). Mutants were identified by growth in the presence of 65 μg/ml IPTG and 80 μg/ml X-Gal, as described by (Glazer et al., Mol. Cell Biol. 7:218–224 (1987)). These transformants were counted and the mutants (white colonies) were streaked for single colonies.
In this vector system, the SV40 DNA, after appropriate treatment, is introduced into monkey COS cells where repair and replication can occur, producing mutations indicative of mammalian processing of DNA damage. The small, circular vector DNA is recovered from the cells by biochemical separation from the chromosomal DNA (Hirt lysate, Hirt et al., J. Mol. Biol. 26:365–369 (1967)), and it is used to transform E. coli carrying the lacZ (amber) mutation to allow analysis of supF gene function by scoring colonies for β-galactosidase activity (produced via suppression of the amber mutation in lacZ) in the presence of the chromogenic substrate, X-gal. Vectors with wild type supF genes yield blue colonies; those with mutations in supF produce white ones. In order to eliminate misleading data that might arise from viral DNA that was not replicated or repaired in the mammalian cells, the viral DNA is digested before bacterial transformation with the enzyme Dpn I which will restrict DNA that has not been methylated by the mammalian pattern at its recognition site.
The design of the initial experiments to target mutations to SV40 DNA is illustrated in FIG. 3. A 10 base pair region of the supF gene (bp 167–176) was identified as a site amenable to triplex formation because of the homopurine/homopyrimidine run there. Since this run was G-rich, the purine motif for triplex formation was selected (Beal and Dervan, Science 251:1360–1363 (1991)), and an oligonucleotide, 5′[…]3′ (SEQ ID NO:2) (AG10) was synthesized based on this motif. A psoralen derivative, 4′-hydroxymethyl-4,5′,8-trimethylpsoralen, was attached to the oligonucleotide by a phosphodiester linkage at the 5′ adenine via a two carbon linker arm, with the goal of directing mutations to base pair 167.

Data set [2] has as its system supF gene within the SV40 vector pSP189. The data set is described as follows: Hinf I restriction enzyme protection assay, SV40 vector DNA target. The settings on record: vector 50 nM. In kind it is binding. How it is done:
The binding and irradiation were carried out as described above, except that pSP189 was used as the supF target at a concentration of 50 nM and psoralen-AG10 was added at ratios of oligomer to vector of from 1:1 to 1000:1. Irradiation and gel conditions were as described above.
Similar experiments were performed to assay for site-specific binding of psoralen-AG10 to bp 167–176 in the supF gene within the SV40 vector itself. In these experiments, varying ratios of oligonucleotide to vector DNA were employed in order to examine basic parameters of the triplex binding to the viral genome. […] Binding of psoralen-AG10 as a triple strand to bp 167–176 of the supF gene within the SV40 vector was assayed by examining protection from Hinf I digestion at bp 164–168, as diagrammed in FIG. 4. The SV40 vector containing the supF target gene (50 nM) was incubated with psoralen-AG10 at ratios of oligomer to vector of from 1:1 to 1000:1, irradiated with 1.8 J/cm^2 of UVA, digested with Hinf I, and run on a 4.5% Nusieve gel. Because the sequences flanking the supF gene in the SV40 DNA differ from those in the PCR fragment, and since there are multiple Hinf I sites in SV40, the pattern of bands is more complex.

The mark [3] stands for this setting: ratio of oligo to vector 2:1, UVA 1.8 J/cm^2.
Setting [4] is: ratio of oligo to vector 5:1, UVA 1.8 J/cm^2.
Where [5] appears, read: ratio of oligo to vector 10:1, UVA 1.8 J/cm^2.
Where [6] appears, read: ratio of oligo to vector 1000:1, no UVA.

Regarding “4′-hydroxymethyl-4,5′,8-trimethylpsoralen-^5′AGGAAGGGGG^3′ (DNA NAGGAAGGGGG; 4'-hydroxymethyl-4,5',8-trimethylpsoralen conjugated at 5' end, further chemistry not given here) [pso-AG10]”, the “Fold higher targeted mutagenesis in SV40 than in bacteriophage lambda grown in E. coli” value in data set [1] (6% to 7% versus 0.23%) is recorded as 30 fold. For the same substance, the “% mutants (supF gene)” value in data set [1] (setting [3]) is 2.5%; in data set [1] (setting [4]) it was 4.3%; in data set [1] (setting [5]), 6.4%; in data set [1] (ratio of oligo to vector 1000:1, UVA 1.8 J/cm^2), 7.3%; in data set [1] (setting [6]), “≦0.06%”. Besides, the “Mutants per total colonies” value in data set [1] (setting [6]) is listed as 0/1700. For the same substance, the “Hinf I protection at the targeted site” value in data set [2] (oligomer to vector 1:1, UVA 1.8 J/cm^2) is recorded as “only partial protection”; in data set [2] (oligomer to vector 2:1, UVA 1.8 J/cm^2), “only partial protection”; in data set [2] (oligomer to vector 10:1, UVA 1.8 J/cm^2), “almost complete”; in data set [2] (oligomer to vector 100:1, UVA 1.8 J/cm^2), “near complete protection”; in data set [2] (oligomer to vector 1000:1, UVA 1.8 J/cm^2), “near complete protection”.
As to “pso-^5′GGGGGAAGGA^3′ (DNA NGGGGGAAGGA; psoralen conjugated at 5' end, further chemistry not given here) [pso-GA10, reference compound]”, in data set [1] (lower ratios of oligo to vector (below 1000:1), plus UVA), the “supF mutagenesis relative to background” value is “no significant mutagenesis above the background frequency”. Besides, the “% mutants (supF gene)” value is 0.07% in data set [1] (setting [3]); 0.13% in data set [1] (setting [4]); 0.06% in data set [1] (setting [5]); 0.5% and 0.63% in data set [1] (ratio of oligo to vector 1000:1, UVA 1.8 J/cm^2, listed as psoralen-GA10); “≦0.07%” in data set [1] (setting [6]). Further, the “Mutants per total colonies” value in data set [1] (setting [6]) is 0/1500.
